Source: US20210130826A1, “METHODS OF MODULATING ANTISENSE ACTIVITY” (IONIS PHARMACEUTICALS, INC., priority 2018, published 2021)

How the values were obtained:
[1] = test system: mTOR kinase activity (pS6/S6 levels); experiment: Liver protein analysis in mice: pS6/S6; format: in vivo; details: Table 34; mouse liver 24 h; oligonucleotide 5 mg/kg (or PBS); Treatment Rapamycin 5 mg/kg at 0, 12, 22 h
Experimental: The following experiments were performed to determine if the effects of autophagy modulators on antisense activity in vitro can be observed in vivo. […] Following administration of modified oligonucleotide, mice were administered 1% DMSO or 5 mg/kg AZD8055 in 1% DMSO at three time points over 24 hours: at the time of administration of the modified oligonucleotide, and 12 and 22 hours after administration of the modified oligonucleotide. A group of control mice was administered PBS at time 0 and 1% DMSO at 0, 12, and 22 hours. Mice were sacrificed at 24 hours after administration of the modified oligonucleotide and tissues were collected for analysis.
Protein analysis was carried out on liver tissue using standard procedures. All proteins were normalized to α-tubulin. […] The antibody against LC3B (ab48394) was purchased from Abcam. […] Antibody against P62 (GP62-C) was purchased from Progen.
A group of control mice was administered PBS at time 0 and 1% DMSO at 0, 12, and 22 hours. Mice were sacrificed at 24 hours after administration of the modified oligonucleotide and tissues were collected for analysis. […]

LC3B = experiment: Liver protein analysis in mice: LC3B II/I ratio; format: in vivo; details: Table 34; mouse liver 24 h; oligonucleotide 5 mg/kg (or PBS); Treatment Rapamycin 5 mg/kg at 0, 12, 22 h
Experimental: (§1) The following experiments were performed to determine if the effects of autophagy modulators on antisense activity in vitro can be observed in vivo. Groups of 3-4 8-week-old male C57bl/6J mice were administered 5 mg/kg control oligonucleotide 141923, or 5 mg/kg antisense oligonucleotide 399462. Following administration of modified oligonucleotide, mice were administered 1% DMSO or 5 mg/kg AZD8055 in 1% DMSO at three time points over 24 hours: at the time of administration of the modified oligonucleotide, and 12 and 22 hours after administration of the modified oligonucleotide. A group of control mice was administered PBS at time 0 and 1% DMSO at 0, 12, and 22 hours. Mice were sacrificed at 24 hours after administration of the modified oligonucleotide and tissues were collected for analysis.
(§2) Autophagy activation was confirmed in livers by determining suppression of mTOR kinase activity (pS6/S6 levels), determining an increased LC3B II/I ratio (a marker for the formation of autophagosomes), and determining p62 degradation (related to the clearance of autophagosomes). Protein analysis was carried out on liver tissue using standard procedures. All proteins were normalized to α-tubulin. Phospho-S6 Ribosomal Protein (Ser240/244) (2215S), and S6 Ribosomal Protein (2217S) antibodies were obtained from Cell Signaling Technology. The antibody against LC3B (ab48394) was purchased from Abcam. […]

p62 = experiment: Liver protein analysis in mice: p62; format: in vivo; details: Table 34; mouse liver 24 h; oligonucleotide 5 mg/kg (or PBS); Treatment Rapamycin 5 mg/kg at 0, 12, 22 h
Experimental: as §1, §2

Malat-1 [2] = experiment: MALAT-1 RNA in mouse liver by RT-qPCR; format: in vivo; details: Table 35; mouse liver 24 h; oligonucleotide 5 mg/kg; rapamycin 5 mg/kg at 0, 12, 22 h
Experimental: The following experiments were performed to determine if the effects of autophagy modulators on antisense activity in vitro can be observed in vivo. […] Mice were sacrificed at 24 hours after administration of the modified oligonucleotide and tissues were collected for analysis. […] Atg7 mRNA levels are a marker of the induction of autophagy in treated mouse livers. Results are presented as percent change of RNA, relative to PBS control treated with DMSO, normalized to mouse cyclophilin A measured using mouse primer probe set Cyclophilin-A (forward sequence [NT], designated herein as SEQ ID NO: 38; reverse sequence [NT], designated herein as SEQ ID NO: 39; probe sequence [NT], designated herein as SEQ ID NO: 40). […] Following administration of modified oligonucleotide, groups of mice were either allowed free access to chow (control) or fasted overnight (16 hr fast). Mice were sacrificed at 16 hours after administration of the modified oligonucleotide and tissues were collected for analysis. […] Atg7 mRNA levels are a marker of the induction of autophagy in treated mouse livers. Results are presented in Table 33 relative to mice treated with PBS and allowed normal access to chow. […] Mice were sacrificed at 24 hours after administration of the modified oligonucleotide and tissues were collected for analysis. […] Atg7 mRNA levels are a marker of the induction of autophagy in treated mouse livers. […] RNA was extracted from liver tissue for real-time RTPCR analysis of MALAT1 RNA expression. Primer probe set 15877 was used to measure mouse MALAT1 RNA levels. Results are presented as percent change of RNA, relative to PBS control, normalized to mouse cyclophilin A measured using mouse primer probe set Cyclophilin-A. […] RNA was extracted from liver tissue for real-time RTPCR analysis of MALAT1 RNA expression. Primer probe set 15877 was used to measure mouse MALAT1 RNA levels. Results are presented as percent change of RNA, relative to PBS control, normalized to mouse cyclophilin A measured using mouse primer probe set Cyclophilin-A.

Atg7 = Atg7 mRNA in mouse liver by RT-qPCR; format: in vivo; details: Table 35; mouse liver 24 h; oligonucleotide 5 mg/kg; rapamycin 5 mg/kg at 0, 12, 22 h
Experimental: The following experiments were performed to determine if the effects of autophagy modulators on antisense activity in vitro can be observed in vivo. […] Mice were sacrificed at 24 hours after administration of the modified oligonucleotide and tissues were collected for analysis. […] Atg7 mRNA levels are a marker of the induction of autophagy in treated mouse livers. Results are presented as percent change of RNA, relative to PBS control treated with DMSO, normalized to mouse cyclophilin A measured using mouse primer probe set Cyclophilin-A (forward sequence [NT], designated herein as SEQ ID NO: 38; reverse sequence [NT], designated herein as SEQ ID NO: 39; probe sequence [NT], designated herein as SEQ ID NO: 40). […] Following administration of modified oligonucleotide, groups of mice were either allowed free access to chow (control) or fasted overnight (16 hr fast). Mice were sacrificed at 16 hours after administration of the modified oligonucleotide and tissues were collected for analysis. […] Atg7 mRNA levels are a marker of the induction of autophagy in treated mouse livers. Results are presented in Table 33 relative to mice treated with PBS and allowed normal access to chow. […] Mice were sacrificed at 24 hours after administration of the modified oligonucleotide and tissues were collected for analysis. […]

Malat-1 [3] = experiment: Malat-1 RNA by RT-qPCR in MHT cells; autophagy modulator, then oligonucleotide by free uptake; format: cell-based, mouse; details: for effect of autophagy modulator on modified oligonucleotide activity (in words): MOE gapmer 399462, relative to DMSO; for effect of autophagy modulator on antisense activity (in words): cEt gapmer 556089, relative to DMSO
Experimental: MHT cells (a mouse hepatocellular carcinoma cell line) were plated at 20,000 cells/well and treated with DMSO (control) or an autophagy modulator for 24 hours at the concentrations indicated in Table 2 below. 3-MA, BafA1, AZD8055, and leupeptin are […]. […] Fourteen hours after the addition of autophagy modulators, 10 μM of a modified control oligonucleotide or of a modified antisense oligonucleotide was added by free uptake for ten hours. The modified oligonucleotides, shown in Table 1 below, are 3-10-3 cEt gapmers in which every internucleoside linkage is a phosphorothioate internucleoside linkage. The three 5′-terminal nucleosides and the three 3′-terminal nucleosides of each oligonucleotide each comprise a cEt modified sugar moiety. The remaining ten nucleosides of each oligonucleotide each comprise an unmodified, 2′-deoxy sugar moiety.
Using the primer probe sets described in Table 3 below, RT-qPCR analysis was performed to detect RNA levels of Malat-1, shown in Table 4 and markers of autophagy, (Rab7, LAMP2, Atg7, ULK1, ULK2, Atg5, Beclin, and c-Jun), shown in Table 5. Results were normalized to cyclophilin A levels. To control for global effects of autophagy modulators on gene expression, Malat-1 RNA levels after treatment with an antisense oligonucleotide and an autophagy modulator were normalized to Malat-1 RNA levels in cells treated with control Compound No. 549148 and the same autophagy modulator.
MHT cells were plated at 20,000 cells/well and treated with DMSO (control) or an autophagy modulator for 24 hours, at the concentrations indicated Table 7 below. Fourteen hours after the addition of autophagy modulator, control or antisense oligonucleotides (see Table 6) were added at 1 μM, 2.5 μM, 5 μM, or 10 μM by free uptake for ten hours. The modified oligonucleotides, shown in Table 6 below, are 5-10-5 MOE gapmers in which every internucleoside linkage is a phosphorothioate internucleoside linkage. The five 5′-terminal nucleosides and the five 3′-terminal nucleosides of each oligonucleotide each comprise a 2′-MOE modified sugar moiety. The remaining ten nucleosides of each oligonucleotide each comprise an unmodified, 2′-deoxy sugar moiety.
RT-qPCR analysis was performed to detect RNA levels of Malat-1 using primer probe set 15877 (described in Example 1). In order to control for global effects of autophagy modulators on gene expression, Malat-1 RNA levels after treatment with an antisense oligonucleotide and an autophagy modulator were normalized to Malat-1 RNA levels in cells treated with control Compound No. 141923 and the same autophagy modulator. Each table below represents results from an individual assay.

Malat-1 [4] = experiment: Malat-1 RNA by RT-qPCR in A431 cells; format: cell-based, human; details: MOE gapmer
Experimental: RT-qPCR analysis was performed to detect RNA levels of Malat-1 using primer probe set RTS2736. Results were normalized to cyclophilin A levels (measured using HTS3936). […] Each table below represents results from an individual assay.

For `CO[C@H]1C[C@@H]2CC[C@@H](C)[C@@](O)(O2)C(=O)C(=O)N2CCCC[C@H]2C(=O)O[C@H]([C@H](C)C[C@@H]2CC[C@@H](O)[C@H](OC)C2)CC(=O)[C@H](C)/C=C(\C)[C@@H](O)[C@@H](OC)C(=O)[C@H](C)C[C@H](C)/C=C/C=C/C=C/1C` [Rapamycin], the pS6/S6 ratio [1] was 0.7, the “LC3B II/I ratio” value (LC3B) was 1.3 and the P62 (p62) was 0.8. For the same compound, the “Malat-1 level (% relative to PBS/DMSO mice)” value (Malat-1 [2]) was 89% and the “Atg7 level (% relative to PBS/DMSO mice)” value (Atg7) was 111%.
In the case of `CC[C@]1(O)C[C@@H]2CN(CCc3c([nH]c4ccccc34)[C@@](C(=O)OC)(c3cc4c(cc3OC)N(C)[C@H]3[C@@](O)(C(=O)OC)[C@H](OC(C)=O)[C@]5(CC)C=CCN6CC[C@]43[C@@H]65)C2)C1` [Vinblastine], the “effect of autophagy modulator on modified oligonucleotide activity (in words)” value (Malat-1 [3]) is reported as “significantly enhanced modified oligonucleotide activity”.
In the case of `Cn1cnc(N)c2ncnc1-2` [3-MA, 3-methyladenine], the “effect of autophagy modulator on modified oligonucleotide activity (in words)” value (Malat-1 [3]) is reported as “significantly enhanced modified oligonucleotide activity” and the “effect of autophagy modulator on antisense activity (in words)” value (from here on “effect … on antisense activity (in words)”) (Malat-1 [3]) is reported as “significantly enhanced antisense activity”.
For `CC(=O)N[C@@H](CC(C)C)C(=O)N[C@@H](CC(C)C)C(=O)N[C@H](C=O)CCCNC(=N)N` [Leupeptin], the “effect of autophagy modulator on modified oligonucleotide activity (in words)” value (Malat-1 [3]) was “significantly enhanced modified oligonucleotide activity”, the “effect … on antisense activity (in words)” value (Malat-1 [3]) was “significantly enhanced antisense activity” and the “effect of autophagy modulator on modified oligonucleotide activity (in words)” value (Malat-1 [4]) was “significantly enhanced modified oligonucleotide activity”.
`CCOC(=O)[C@H]1O[C@@H]1C(=O)N[C@@H](CC(C)C)C(=O)NCCC(C)C` [E64D] was tested, and the “effect of autophagy modulator on modified oligonucleotide activity (in words)” value (Malat-1 [3]) was “reduced activity of modified oligonucleotide”.
For `CC(C)C(=O)CN1c2nc(N3CCOC[C@H]3C)cc(=O)n2CC[C@H]1C(F)(F)F` [VPS34-IN2], the “effect of autophagy modulator on modified oligonucleotide activity (in words)” value (Malat-1 [3]) was “significantly enhanced modified oligonucleotide activity” and the “effect of autophagy modulator on modified oligonucleotide activity (in words)” value (Malat-1 [4]) was “significantly enhanced modified oligonucleotide activity”.
In the case of `CO/C1=C\C(C)=C\[C@@H](C)[C@@H](O)[C@@H](C)C/C(C)=C/C=C/[C@H](OC)[C@@H]([C@@H](C)[C@@H](O)[C@H](C)[C@@]2(O)C[C@@H](O)[C@H](C)[C@@H](C(C)C)O2)OC1=O` [BafA1, Bafilomycin A1], the “effect of autophagy modulator on modified oligonucleotide activity (in words)” value (Malat-1 [3]) is reported as “significantly enhanced modified oligonucleotide activity”, the “effect … on antisense activity (in words)” value (Malat-1 [3]) is reported as “significantly enhanced antisense activity” and the “effect of autophagy modulator on modified oligonucleotide activity (in words)” value (Malat-1 [4]) is reported as “significantly enhanced modified oligonucleotide activity”.
